Reference: paper PMC9329436, “Optimization of the 4-anilinoquin(az)oline scaffold as epidermal growth factor receptor (EGFR) inhibitors for chordoma utilizing a toxicology profiling assay platform” (Scientific Reports, 2022)
Read-outs that look alike come from different tables or passages of the source.

Key:
Format in all cases: biochemical
[1] = target: T1, 320 wild-type protein kinases (Homo sapiens, UniProt P30530); conditions: AXL, singlicate
T1 sequence (P30530 26-894): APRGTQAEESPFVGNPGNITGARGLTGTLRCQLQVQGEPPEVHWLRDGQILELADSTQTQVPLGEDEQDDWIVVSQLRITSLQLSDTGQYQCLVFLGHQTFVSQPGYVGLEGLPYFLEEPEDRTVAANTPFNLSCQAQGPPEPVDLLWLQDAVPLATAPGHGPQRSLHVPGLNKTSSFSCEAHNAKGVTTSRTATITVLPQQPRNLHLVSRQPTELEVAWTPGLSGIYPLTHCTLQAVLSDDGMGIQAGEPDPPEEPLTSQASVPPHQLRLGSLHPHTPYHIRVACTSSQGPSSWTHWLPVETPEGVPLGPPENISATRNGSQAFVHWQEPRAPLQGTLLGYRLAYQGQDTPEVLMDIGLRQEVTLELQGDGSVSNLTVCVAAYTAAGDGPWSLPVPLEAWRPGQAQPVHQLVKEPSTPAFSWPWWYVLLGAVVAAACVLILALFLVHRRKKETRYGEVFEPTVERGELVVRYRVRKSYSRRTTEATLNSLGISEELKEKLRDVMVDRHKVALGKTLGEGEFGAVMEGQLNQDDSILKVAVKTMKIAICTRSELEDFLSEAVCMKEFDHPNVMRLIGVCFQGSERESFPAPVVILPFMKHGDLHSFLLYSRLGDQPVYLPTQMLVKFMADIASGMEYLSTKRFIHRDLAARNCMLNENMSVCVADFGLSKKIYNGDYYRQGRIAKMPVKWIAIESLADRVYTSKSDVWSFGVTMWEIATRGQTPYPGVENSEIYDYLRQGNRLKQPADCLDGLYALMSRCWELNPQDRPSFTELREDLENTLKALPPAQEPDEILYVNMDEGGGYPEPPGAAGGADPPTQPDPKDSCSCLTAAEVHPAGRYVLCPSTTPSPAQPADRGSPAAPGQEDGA
Source text: (§1) Table S4. Profiling of two compounds at two concentrations against 320 wild-type protein kinases; singlicate measurement; Residual activities (% of control).

[2] = target: 320 wild-type protein kinases (Homo sapiens, UniProt O96017); conditions: singlicate
Source text: as §1

[3] = target: T2, 320 wild-type protein kinases (Homo sapiens, UniProt P45985); conditions: singlicate
T2 sequence (P45985 1-399): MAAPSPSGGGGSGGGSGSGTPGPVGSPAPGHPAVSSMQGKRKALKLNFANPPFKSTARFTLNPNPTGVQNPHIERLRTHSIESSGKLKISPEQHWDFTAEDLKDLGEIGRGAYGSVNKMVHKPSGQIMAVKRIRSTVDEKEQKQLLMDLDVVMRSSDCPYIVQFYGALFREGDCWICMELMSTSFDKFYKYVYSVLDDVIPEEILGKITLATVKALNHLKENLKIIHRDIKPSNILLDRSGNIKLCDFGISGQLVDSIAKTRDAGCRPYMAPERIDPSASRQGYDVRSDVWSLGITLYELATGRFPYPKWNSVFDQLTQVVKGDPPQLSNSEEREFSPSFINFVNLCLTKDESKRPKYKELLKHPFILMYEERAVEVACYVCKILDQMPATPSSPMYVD
Source text: as §1

[4] = target: 320 wild-type protein kinases (Homo sapiens, UniProt P04049, Y340D/Y341D); conditions: kinase RAF1 Y340D/Y341D (untagged), singlicate
Source text: as §1

[5] = target: T3, 320 wild-type protein kinases (Homo sapiens, UniProt Q99986); conditions: kinase VRK1, singlicate
T3 sequence (Q99986 1-396): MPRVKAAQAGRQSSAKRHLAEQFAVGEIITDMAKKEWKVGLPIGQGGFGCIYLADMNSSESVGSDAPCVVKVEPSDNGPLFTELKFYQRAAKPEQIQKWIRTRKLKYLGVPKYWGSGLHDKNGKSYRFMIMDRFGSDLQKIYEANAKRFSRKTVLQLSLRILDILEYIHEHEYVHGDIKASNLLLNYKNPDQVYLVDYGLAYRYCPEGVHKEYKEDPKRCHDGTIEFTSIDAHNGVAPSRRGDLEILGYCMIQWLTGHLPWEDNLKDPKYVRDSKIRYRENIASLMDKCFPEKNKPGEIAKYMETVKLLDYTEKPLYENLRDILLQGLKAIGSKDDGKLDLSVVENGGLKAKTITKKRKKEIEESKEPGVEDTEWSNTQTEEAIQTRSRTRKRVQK
Source text: as §1

[6] = target: T4, 320 wild-type protein kinases (Homo sapiens, UniProt Q9UHD2); conditions: kinase TBK1, singlicate
T4 sequence (Q9UHD2 1-729): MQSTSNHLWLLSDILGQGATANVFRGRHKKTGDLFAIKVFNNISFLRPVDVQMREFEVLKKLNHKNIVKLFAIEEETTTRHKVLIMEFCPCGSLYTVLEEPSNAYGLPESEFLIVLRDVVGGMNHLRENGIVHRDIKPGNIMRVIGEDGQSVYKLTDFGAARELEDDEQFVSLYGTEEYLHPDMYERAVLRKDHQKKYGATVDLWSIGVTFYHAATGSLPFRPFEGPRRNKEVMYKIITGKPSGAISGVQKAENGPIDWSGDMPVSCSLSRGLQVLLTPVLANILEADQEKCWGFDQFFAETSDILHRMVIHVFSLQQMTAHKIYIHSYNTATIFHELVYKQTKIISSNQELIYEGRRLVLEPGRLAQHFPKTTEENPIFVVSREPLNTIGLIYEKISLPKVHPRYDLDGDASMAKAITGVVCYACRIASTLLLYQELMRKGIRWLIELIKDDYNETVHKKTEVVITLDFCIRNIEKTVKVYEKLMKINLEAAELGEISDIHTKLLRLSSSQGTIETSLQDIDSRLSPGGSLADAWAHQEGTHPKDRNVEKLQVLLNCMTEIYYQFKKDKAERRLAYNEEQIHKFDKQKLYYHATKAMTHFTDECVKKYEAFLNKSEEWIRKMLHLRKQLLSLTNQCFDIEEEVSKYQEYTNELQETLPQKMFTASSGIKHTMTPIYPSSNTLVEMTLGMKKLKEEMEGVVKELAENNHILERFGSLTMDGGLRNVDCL
Source text: as §1

Chain of 320 wild-type protein kinases (Homo sapiens, UniProt O96017) (O96017 whole entry): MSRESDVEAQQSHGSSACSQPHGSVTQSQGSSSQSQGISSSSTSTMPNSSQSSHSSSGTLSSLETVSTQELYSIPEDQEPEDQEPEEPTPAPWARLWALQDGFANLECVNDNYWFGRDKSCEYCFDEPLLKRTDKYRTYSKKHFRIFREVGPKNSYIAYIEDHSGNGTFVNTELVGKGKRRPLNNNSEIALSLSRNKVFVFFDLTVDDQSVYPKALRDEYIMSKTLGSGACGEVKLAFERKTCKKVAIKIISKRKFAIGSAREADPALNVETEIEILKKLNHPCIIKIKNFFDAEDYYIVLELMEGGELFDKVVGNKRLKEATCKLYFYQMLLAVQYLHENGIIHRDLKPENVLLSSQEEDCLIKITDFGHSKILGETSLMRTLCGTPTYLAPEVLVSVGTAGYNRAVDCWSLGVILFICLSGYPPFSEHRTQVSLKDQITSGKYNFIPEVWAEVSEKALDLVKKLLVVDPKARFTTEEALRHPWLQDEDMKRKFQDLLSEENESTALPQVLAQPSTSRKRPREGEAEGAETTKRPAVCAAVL

SMILES | Residual activity ([1]; 1.0E-06 M) | Residual activity ([1]; 1.0E-07 M) | Residual activity ([2]; CHK2, 1.0E-06 M) | Residual activity ([2]; CHK2, 1.0E-07 M) | Residual activity ([3]; MKK4, 1.0E-06 M) | Residual activity ([3]; MKK4, 1.0E-07 M) | Residual activity, RAF1 Y340D/Y341D (untagged) ([4]; assay conc. 1.0E-06 M) | Residual activity, RAF1 Y340D/Y341D (untagged) ([4]; assay conc. 1.0E-07 M) | Residual activity, VRK1 ([5]; assay conc. 1.0E-06 M) | Residual activity, VRK1 ([5]; assay conc. 1.0E-07 M) | Residual activity, TBK1 ([6]; assay conc. 1.0E-06 M) | Residual activity, TBK1 ([6]; assay conc. 1.0E-07 M)
C#Cc1cc(Nc2ncnc3cc(I)ccc23)ccc1Cl [Compound 41] | 97 % of control | 116 % of control | 83 % of control | 105 % of control | 93 % of control | 87 % of control | 99 % of control | 95 % of control | 98 % of control | 109 % of control | 98 % of control | 106 % of control
C#Cc1cc(Nc2ncnc3cc(OC)c(OC)cc23)ccc1Cl [Compound 45] | 80 % of control | 103 % of control | 78 % of control | 94 % of control | 96 % of control | 88 % of control | 88 % of control | 83 % of control | 93 % of control | 104 % of control | 89 % of control | 106 % of control
